US9200005B2, “Inhibitor compounds of phosphodiesterase type 10A” (AbbVie Deutschland GmbH & Co. KG, priority 2013, dated 2015)
Structures can show the parent of a compound that is named as a salt. Each block holds one compound with its values, some of them ahead of it.

Experiments:
[1] = Determination of the microsomal half-life / microsomal clearance, human liver microsomes; type: in vitro ADME; conditions: 0.5 μM test substance, 0.25 mg of microsomal protein/mL, NADPH, 37° C.
Description: (§1) b) Determination of the Microsomal Half-Life:
(§2) The metabolic stability of the compounds of the invention was determined in the following assay.
(§3) The test substances were incubated in a concentration of 0.5 μM as follows:
(§4) 0.5 μM test substance are preincubated together with liver microsomes from different species (from rat, human or other species) (0.25 mg of microsomal protein/mL) in 0.05 M potassium phosphate buffer of pH 7.4 in microtiter plates at 37° C. for 5 min. The reaction is started by adding NADPH (1 mg/mL). After 0, 5, 10, 15, 20 and 30 min, 50 μl aliquots are removed, and the reaction is immediately stopped and cooled with the same volume of acetonitrile. The samples are frozen until analyzed. The remaining concentration of undegraded test substance is determined by MSMS. The half-life (T½) is determined from the gradient of the signal of test substance/unit time plot, it being possible to calculate the half-life of the test substance, assuming first order kinetics, from the decrease in the concentration of the compound with time. The microsomal clearance (mCl) is calculated from mCl=ln 2/T½/(content of microsomal protein in mg/mL)×1000 [mL/min/mg] (modified from references: Di, The Society for Biomoleculur Screening, 2003, 453-462; Obach, DMD, 1999 vol 27. N 11, 1350-1359).

[2] = Determination of the microsomal half-life / microsomal clearance, rat liver microsomes; type: in vitro ADME; conditions: 0.5 μM test substance, 0.25 mg of microsomal protein/mL, NADPH, 37° C.
Description: as §1, §2, §3, §4

- Human mCl [1]: ++ (++: <100 μl min^−1 mg^−1)
- Rat mCl [2]: ++ (++: <100 μl min^−1 mg^−1)
Compound: Cn1nc(-c2ccncc2)c2scc(-c3cccc(C(=O)N4CCOCC4)c3)c2c1=O [Example 32, 5-methyl-3-[3-(morpholin-4-ylcarbonyl)phenyl]-7-(pyridin-4-yl)thieno[2,3-d]pyridazin-4(5H)-one trifluoroacetate]

- Human mCl [1]: ++ (++: <100 μl min^−1 mg^−1)
Compound: Cn1nc(-c2ccncc2)c2scc(-c3ccc(NS(C)(=O)=O)cc3)c2c1=O.O=C(O)C(F)(F)F [Example 33, N-{4-[5-methyl-4-oxo-7-(pyridin-4-yl)-4,5-dihydrothieno[2,3-d]pyridazin-3-yl]phenyl}methanesulfonamide trifluoroacetate]
- Rat mCl [2]: ∘ (∘ not avialable or >220 μl min^−1 mg^−1)

- Human mCl [1]: ++ (++: <100 μl min^−1 mg^−1)
- Rat mCl [2]: + (+: 100-220 μl min^−1 mg^−1)
Compound: Cn1nc(-c2ccncc2)c2scc(-c3ccsc3)c2c1=O.O=C(O)C(F)(F)F [Example 34, 5-methyl-7-(pyridin-4-yl)-3-(thiophen-3-yl)thieno[2,3-d]pyridazin-4(5H)-one trifluoroacetate]

- Human mCl [1]: + (+: 100-220 μl min^−1 mg^−1)
- Rat mCl [2]: + (+: 100-220 μl min^−1 mg^−1)
Compound: Cn1nc(-c2ccncc2)c2scc(-c3ccc4c(c3)CCO4)c2c1=O.O=C(O)C(F)(F)F [Example 35, 3-(2,3-dihydro-1-benzofuran-5-yl)-5-methyl-7-(pyridin-4-yl)thieno[2,3-d]pyridazin-4(5H)-one trifluoroacetate]

- Human mCl [1]: ++ (++: <100 μl min^−1 mg^−1)
- Rat mCl [2]: ++ (++: <100 μl min^−1 mg^−1)
Compound: Cn1nc(-c2ccncc2)c2scc(-c3ccccc3F)c2c1=O.O=C(O)C(F)(F)F [Example 36, 3-(2-fluorophenyl)-5-methyl-7-(pyridin-4-yl)thieno[2,3-d]pyridazin-4(5H)-one trifluoroacetate]

- Human mCl [1]: ++ (++: <100 μl min^−1 mg^−1)
- Rat mCl [2]: + (+: 100-220 μl min^−1 mg^−1)
Compound: Cn1cc(-c2csc3c(-c4ccncc4)nn(C)c(=O)c23)cn1.O=C(O)C(F)(F)F [Example 37, 5-methyl-3-(1-methyl-1H-pyrazol-4-yl)-7-(pyridin-4-yl)thieno[2,3-d]pyridazin-4(5H)-one trifluoroacetate]

- Human mCl [1]: ++ (++: <100 μl min^−1 mg^−1)
- Rat mCl [2]: ++ (++: <100 μl min^−1 mg^−1)
Compound: COc1ccccc1-c1csc2c(-c3ccncc3)nn(C)c(=O)c12.O=C(O)C(F)(F)F [Example 39, 3-(2-methoxyphenyl)-5-methyl-7-(pyridin-4-yl)thieno[2,3-d]pyridazin-4(5H)-one trifluoroacetate]

- Human mCl [1]: ++ (++: <100 μl min^−1 mg^−1)
- Rat mCl [2]: ++ (++: <100 μl min^−1 mg^−1)
Compound: Cn1nc(-c2ccncc2)c2scc(-c3ccc(C(=O)NC4CC4)cc3)c2c1=O.O=C(O)C(F)(F)F [Example 40, N-cyclopropyl-4-[5-methyl-4-oxo-7-(pyridin-4-yl)-4,5-dihydrothieno[2,3-d]pyridazin-3-yl]benzamide trifluoroacetate]

Second part, the compound before the results:

Compound: 3-(4-fluorophenyl)-5-methyl-7-(pyridin-4-yl)thieno[2,3-d]pyridazin-4(5H)-one [Example 48]
- Human mCl [1]: ++ (++: <100 μl min^−1 mg^−1)
- Rat mCl [2]: ++ (++: <100 μl min^−1 mg^−1)

Compound: Cn1nc(-c2ccncc2)c2scc(N3CCC(O)CC3)c2c1=O [Example 4, 3-(4-hydroxypiperidin-1-yl)-5-methyl-7-(pyridin-4-yl)thieno[2,3-d]pyridazin-4(5H)-one]
- Human mCl [1]: ++ (++: <100 μl min^−1 mg^−1)
- Rat mCl [2]: ++ (++: <100 μl min^−1 mg^−1)

Compound: Cn1nc(-c2ccncc2)c2scc(N3CCN(C(=O)OC(C)(C)C)CC3)c2c1=O [Example 5, tert-butyl 4-[5-methyl-4-oxo-7-(pyridin-4-yl)-4,5-dihydrothieno[2,3-d]pyridazin-3-yl]piperazine-1-carboxylate]
- Human mCl [1]: ++ (++: <100 μl min^−1 mg^−1)
- Rat mCl [2]: ++ (++: <100 μl min^−1 mg^−1)

Compound: Cn1nc(-c2ccncc2)c2scc(-c3ccnnc3)c2c1=O [Example 7, 5-methyl-3-(pyridazin-4-yl)-7-(pyridin-4-yl)thieno[2,3-d]pyridazin-4(5H)-one]
- Human mCl [1]: ++ (++: <100 μl min^−1 mg^−1)
- Rat mCl [2]: + (+: 100-220 μl min^−1 mg^−1)

Compound: Cn1nc(-c2ccncc2)c2scc(-c3ccc(F)cc3)c2c1=O [Example 8, 3-(4-fluorophenyl)-5-methyl-7-(pyridin-4-yl)thieno[2,3-d]pyridazin-4(5H)-one]
- Human mCl [1]: + (+: 100-220 μl min^−1 mg^−1)
- Rat mCl [2]: + (+: 100-220 μl min^−1 mg^−1)

Compound: COc1ncc(-c2csc3c(-c4ccncc4)nn(C)c(=O)c23)cn1 [Example 10, 3-(2-methoxypyrimidin-5-yl)-5-methyl-7-(pyridin-4-yl)thieno[2,3-d]pyridazin-4(5H)-one]
- Human mCl [1]: ++ (++: <100 μl min^−1 mg^−1)
- Rat mCl [2]: ++ (++: <100 μl min^−1 mg^−1)

Compound: Cn1nc(-c2ccncc2)c2scc(N3CCNCC3)c2c1=O [Example 12, 5-methyl-3-(piperazin-1-yl)-7-(pyridin-4-yl)thieno[2,3-d]pyridazin-4(5H)-one (dihydrochloride salt)]
- Human mCl [1]: ++ (++: <100 μl min^−1 mg^−1)
- Rat mCl [2]: ++ (++: <100 μl min^−1 mg^−1)

Compound: Cn1nc(-c2ccncc2)c2scc(CN3CCOCC3)c2c1=O [Example 13, 5-methyl-3-(morpholin-4-ylmethyl)-7-(pyridin-4-yl)thieno[2,3-d]pyridazin-4(5H)-one]
- Human mCl [1]: + (+: 100-220 μl min^−1 mg^−1)
- Rat mCl [2]: + (+: 100-220 μl min^−1 mg^−1)

Compound: Cn1nc(-c2ccncc2)c2scc(-c3cccnc3)c2c1=O.O=C(O)C(F)(F)F [Example 15, 5-methyl-3-(pyridin-3-yl)-7-(pyridin-4-yl)thieno[2,3-d]pyridazin-4(5H)-one bis(trifluoroacetate)]
- Human mCl [1]: ++ (++: <100 μl min^−1 mg^−1)
- Rat mCl ([2]; bis(trifluoroacetate)): ∘ (∘ not avialable or >220 μl min^−1 mg^−1)

Compound: Cn1nc(-c2ccncc2)c2scc(-c3cc4ccccc4s3)c2c1=O.O=C(O)C(F)(F)F [Example 23, 3-(1-benzothiophen-2-yl)-5-methyl-7-(pyridin-4-yl)thieno[2,3-d]pyridazin-4(5H)-one trifluoroacetate]
- Human mCl [1]: + (+: 100-220 μl min^−1 mg^−1)
- Rat mCl [2]: + (+: 100-220 μl min^−1 mg^−1)

Compound: Cn1nc(-c2ccncc2)c2scc(-c3cccc(-n4cccn4)c3)c2c1=O.O=C(O)C(F)(F)F.O=C(O)C(F)(F)F [Example 24, 5-methyl-3-[3-(1H-pyrazol-1-yl)phenyl]-7-(pyridin-4-yl)thieno[2,3-d]pyridazin-4(5H)-one bis(trifluoroacetate)]
- Human mCl [1]: ∘ (∘ not avialable or >220 μl min^−1 mg^−1)
- Rat mCl [2]: + (+: 100-220 μl min^−1 mg^−1)

Compound: Cn1nc(-c2ccncc2)c2scc(-c3ccc(C#N)cc3)c2c1=O.O=C(O)C(F)(F)F [Example 25, 4-[5-methyl-4-oxo-7-(pyridin-4-yl)-4,5-dihydrothieno[2,3-d]pyridazin-3-yl]benzonitrile trifluoroacetate]
- Human mCl [1]: ++ (++: <100 μl min^−1 mg^−1)
- Rat mCl [2]: ++ (++: <100 μl min^−1 mg^−1)

Compound: Cn1nc(-c2ccncc2)c2scc(-c3csc4ccccc34)c2c1=O.O=C(O)C(F)(F)F [Example 26, 3-(1-benzothiophen-3-yl)-5-methyl-7-(pyridin-4-yl)thieno[2,3-d]pyridazin-4(5H)-one trifluoroacetate]
- Human mCl [1]: + (+: 100-220 μl min^−1 mg^−1)
- Rat mCl [2]: ∘ (∘ not avialable or >220 μl min^−1 mg^−1)

Compound: Cn1nc(-c2ccncc2)c2scc(-c3ccc(F)nc3)c2c1=O.O=C(O)C(F)(F)F.O=C(O)C(F)(F)F [Example 27, 3-(6-fluoropyridin-3-yl)-5-methyl-7-(pyridin-4-yl)thieno[2,3-d]pyridazin-4(5H)-one bis(trifluoroacetate)]
- Human mCl [1]: ++ (++: <100 μl min^−1 mg^−1)
- Rat mCl [2]: ++ (++: <100 μl min^−1 mg^−1)

Compound: COc1cccc(-c2csc3c(-c4ccncc4)nn(C)c(=O)c23)c1.O=C(O)C(F)(F)F [Example 30, 3-(3-methoxyphenyl)-5-methyl-7-(pyridin-4-yl)thieno[2,3-d]pyridazin-4(5H)-one trifluoroacetate]
- Human mCl [1]: + (+: 100-220 μl min^−1 mg^−1)
- Rat mCl [2]: + (+: 100-220 μl min^−1 mg^−1)

Compound: Cn1nc(-c2ccncc2)c2scc(-c3cccc(F)c3)c2c1=O.O=C(O)C(F)(F)F [Example 31, 3-(3-fluorophenyl)-5-methyl-7-(pyridin-4-yl)thieno[2,3-d]pyridazin-4(5H)-one trifluoroacetate]
- Human mCl [1]: + (+: 100-220 μl min^−1 mg^−1)
- Rat mCl [2]: ++ (++: <100 μl min^−1 mg^−1)
